Data reported in patent publication US20030229048A1, “Methods and compositions for inhibition of irritation by disaccharide and metal ions” (priority 2002, published 2003).

Key:
Format in all cases: cell-based, Human
IL-1α [1] = experiment: IL-1α release (ELISA) in keratinocyte cells stimulated with methyl salicylate; details: for inhibition of MS induced IL-1α release: summary statement
Experimental: (§1) Reagents methyl salicylate, ethacrynic acid, trehalose A, B, and C were obtained from Sigma-Aldrich (St. Louis, Mo.). Trehaloses were dissolved in keratinocyte media. Methyl salicylate was diluted in keratinocyte media. Ethacrynic acid was dissolved in DMSO. Keratinocyte cells were grown to 100% confluency as per the instructions given by ATCC. Then the cells were trypsinized to dislodge cells and spun at 3000 rpm for 3 min. The supernatant was aspirated and the cells were re-suspended in fresh media at a density of 1.0×10^6 cells per mL. The cell suspension was the pipetted into a 96-well plate (200 ul of per well) and cells were incubated overnight at 37° C. The next day morning media was aspirated, and 100 uL of fresh medium containing methyl salicylate (2%) was added to all the wells except for the (−) control wells. No MS was included in the (−) control wells. Then 100 uL of medium containing the various test reagents were added to the wells so that the final concentrations were as indicated in FIGS. 2-7. The 96-well plate was then incubated. After incubation for four hours at 36° C., the supernatant from the wells was transferred to centrifuge tubes and centrifuged to remove the cell debris. Then the presence of IL-1α was determined using ELISA kit (R&D systems, Inc.) as per the manufacturer's specifications. The cells remaining in the wells were treated with pre-warmed media containing MTT solution and incubated for four hours. Then the formazan product (metabolic product of MTT) in the wells was solubilized and the absorbance was measured using a plate reader.
Human keratinocytes were stimulated with MS in the absence or the presence of trehalose compounds, to find an optimal concentration of trehalose at which IL- 1α production is reduced by half compared to the positive control.

IL-1α [2] = experiment: as above; details: substance alone; earlier work of the applicant
Keratinocyte cells = experiment: MTT assay, cytotoxicity / cell viability of keratinocyte cells
Experimental: as §1, with “After incubation for four hours at 36° C., the supernatant from the wells was transferred to centrifuge tubes and centrifuged to remove the cell debris.” left out, “The cells remaining in the wells were treated with pre-warmed media containing MTT solution and incubated for four hours.” left out, “reader. […]” for “reader.”

C=C(CC)C(=O)c1ccc(OCC(=O)O)c(Cl)c1Cl [Ethacrynic Acid, reference compound]
inhibition of MS induced IL-1α release (IL-1α [1]; concentration not given): inhibited the IL-1α release by MS
reduction in IL-1α levels compared to MS 1% (positive control) (IL-1α [1]; test substance at 0.16%, FIG. 2): over 50%

OC[C@H]1O[C@H](O[C@H]2O[C@H](CO)[C@@H](O)[C@H](O)[C@H]2O)[C@H](O)[C@@H](O)[C@@H]1O [Trehalose C, trehalose]
inhibition of MS induced IL-1α release (IL-1α [1]; concentration not stated, listed as trehalose C): no effect

COC(=O)c1ccccc1O [MS, Methyl Salicylate]
release of primary cytokines, especially IL-1α, in epidermal keratinocytes (IL-1α [2]): stimulates release

[O]=[Zn] [Zinc Oxide]
MTT concentration levels in Keratinocyte cells (cell viability) (Keratinocyte cells; concentrations at which ZnO inhibited MS stimulated IL-1α release, FIG. 7): no effect
state of the cells (Keratinocyte cells; high concentrations of zinc oxide, FIG. 4 experiment): the cells were not active
effect on IL-1α levels in Keratinocyte cells stimulated by 1% Methyl Salicylate (IL-1α [1]; FIG. 5, lower concentrations): significant dose dependent decrease
IL-1α levels in Keratinocyte cells stimulated with 1% Methyl Salicylate (IL-1α [1]; concentration levels 10%-1.25%, FIG. 4): large decrease
MS stimulated IL-1α levels (IL-1α [1]; high concentrations, FIG. 4): dramatic reduction
inhibition of MS induced IL-1α release (IL-1α [1]; concentration not given): able to block MS induced IL-1α production as effectively as trehalose A
reduction in IL-1α concentrations induced by Methyl Salicylate (IL-1α [1]; test substance at 0.000125%, FIG. 5): greater than 50%

OC[C@H]1O[C@H](O[C@H]2O[C@H](CO)[C@@H](O)[C@H](O)[C@H]2O)[C@H](O)[C@@H](O)[C@@H]1O [Trehalose A, trehalose]
effect on IL-1α levels, MS stimulated (IL-1α [1]; low concentrations of 0.1-2.5%): neither trehalose A nor B showed any effect
inhibition of MS induced IL-1α release (IL-1α [1]; concentration not stated, listed as trehalose A): capable of inhibiting MS induced IL-1α release
reduction in IL-1α levels compared to MS 1% (positive control) (IL-1α [1]; test substance at 2.5%, FIG. 2): no effect
reduction in IL-1α levels compared to MS 1% (positive control) (IL-1α [1]; test substance at 5%, FIG. 2): much lower levels of reduction

OC[C@H]1O[C@H](O[C@H]2O[C@H](CO)[C@@H](O)[C@H](O)[C@H]2O)[C@H](O)[C@@H](O)[C@@H]1O [Trehalose B, trehalose]
effect on IL-1α levels in Keratinocyte cells stimulated by 1% Methyl Salicylate (IL-1α [1]; FIG. 5, lower concentrations): no effect
effect on IL-1α levels in Keratinocyte cells stimulated by 1% Methyl Salicylate (IL-1α [1]; any concentrations that were tested, FIGS. 2 and 3): no effect
effect on IL-1α levels compared to MS 1% (positive control) (IL-1α [1]; at any of 2.5%, 5%, 10%, FIG. 2): no effect
inhibition of MS induced IL-1α release (IL-1α [1]; concentration not stated, listed as trehalose B): no effect
